Source: PMC4220016, “The binding characteristics and orientation of a novel radioligand with distinct properties at 5-HT3A and 5-HT3AB receptors” (Neuropharmacology, 2014)
Values joined by “and” are separate entries in the source; they are usually repeats but may differ in a detail not shown here. Equal values may be shown once. Read-outs that look alike come from different tables or passages of the source.

Experiments:
5-HT3A receptors [1] = target: 5-HT3A receptors; design: method as in Thompson et al., 2012; settings: ref Thompson et al., 2012, cited from earlier work
5-HT3A receptors [2] = target: T1, 5-HT3A receptors (Homo sapiens, UniProt P46098); assay: biochemical; format: binding; design: expressed in transfected cells; host or cells: HEK 293; settings: 5-HT3A; tritiated ligand, transfected HEK 293 cells, 0 °C; read-out: Kd (nM) saturation
T1 sequence (P46098 24-478): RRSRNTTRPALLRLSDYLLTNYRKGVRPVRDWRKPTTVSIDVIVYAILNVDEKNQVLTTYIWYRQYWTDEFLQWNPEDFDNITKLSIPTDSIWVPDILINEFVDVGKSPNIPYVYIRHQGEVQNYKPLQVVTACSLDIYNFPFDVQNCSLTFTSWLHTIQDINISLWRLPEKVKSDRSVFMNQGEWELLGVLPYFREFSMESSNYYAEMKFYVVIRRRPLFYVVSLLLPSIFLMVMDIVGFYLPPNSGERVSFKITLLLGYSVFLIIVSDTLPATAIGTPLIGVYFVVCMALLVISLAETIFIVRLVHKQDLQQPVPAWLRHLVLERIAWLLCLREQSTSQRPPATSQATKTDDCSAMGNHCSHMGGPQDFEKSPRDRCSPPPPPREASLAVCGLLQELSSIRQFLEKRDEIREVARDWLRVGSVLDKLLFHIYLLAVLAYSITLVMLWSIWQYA

5-HT3A receptor Y153C = target: T2, 5-HT3A receptor Y153C (Homo sapiens, UniProt P46098, Y148C); assay: Saturation binding of [^3H]VUF10166 at 5-HT3A receptor mutant; settings: Y153C Kd versus wild type
T2 construct: expressed in transfected cells; host or cells: HEK 293
Experimental: (§1) Mutagenesis was performed using the QuikChange method (Agilent Technologies Inc., California, USA) on human 5-HT3A cDNA (accession number: P46098) cloned into pcDNA3.1 (Invitrogen, Paisley, UK). Cysteine residues were substituted for amino acids throughout each of the binding loops A–E (Fig. 1). To facilitate comparisons with previous work, we use the numbering of the equivalent residues in the mouse 5-HT3A subunit; for human numbering 5 should be subtracted from each residue number.
(§2) All data were analysed using GraphPad Prism 4.03. […].

5-HT3A receptor F226C = target: T3, 5-HT3A receptor F226C (Homo sapiens, UniProt P46098, F221C); assay: as above; settings: F226C Kd versus wild type
T3 construct: expressed in transfected cells; host or cells: HEK 293
Experimental: as §1, §2

5-HT3A receptor L126C = target: T4, 5-HT3A receptor L126C (Homo sapiens, UniProt P46098, L121C); assay: as above; settings: L126C Kd versus wild type
T4 construct: expressed in transfected cells; host or cells: HEK 293
Experimental: as §1, §2

5-HT3A receptors [3] = target: T1, 5-HT3A receptors; assay: Kinetic measurements (association, dissociation) at 5-HT3A receptors; format: binding; design: expressed in transfected cells; host or cells: HEK 293
α7 nACh receptors = α7 nACh receptors (Homo sapiens, UniProt P36544); settings: unlabelled VUF10166, ref Thompson et al., 2012; cited from earlier work
5-HT3 receptors = system: 5-HT3 receptors; design: method as in Thompson et al., 2012; settings: at μM concentrations; ref Thompson et al., 2012; cited from earlier work
5-HT3AB receptors [4] = target: T5, 5-HT3AB receptors (Homo sapiens, UniProt O95264+P46098); assay: biochemical; settings: Ki (nM) competition
T5 sequence (P46098 24-478): T1 sequence (P46098 24-478)
T5 sequence (O95264 22-441): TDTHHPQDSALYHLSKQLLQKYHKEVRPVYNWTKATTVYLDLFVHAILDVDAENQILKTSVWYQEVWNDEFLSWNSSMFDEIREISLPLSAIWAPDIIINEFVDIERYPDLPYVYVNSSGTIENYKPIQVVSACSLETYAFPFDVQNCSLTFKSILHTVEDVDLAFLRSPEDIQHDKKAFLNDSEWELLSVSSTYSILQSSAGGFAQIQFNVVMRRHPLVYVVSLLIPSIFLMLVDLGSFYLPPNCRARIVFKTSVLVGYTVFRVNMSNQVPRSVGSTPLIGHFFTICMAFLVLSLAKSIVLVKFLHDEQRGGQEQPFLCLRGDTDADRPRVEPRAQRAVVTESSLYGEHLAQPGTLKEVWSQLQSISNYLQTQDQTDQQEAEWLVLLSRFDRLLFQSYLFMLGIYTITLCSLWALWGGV

5-HT3AB receptors [5] = target: T5, 5-HT3AB receptors; assay: Kinetic measurements (association, dissociation) at 5-HT3AB receptors; format: binding; design: expressed in transfected cells; host or cells: HEK 293; settings: for koff: from kobs plot; for Kd: from kinetic rates, Equ (4), read-out: Kd(nM) (kon/koff)
5-HT3A receptors [6] = target: T1, 5-HT3A receptors; assay: biochemical
5-HT3AB receptors [7] = target: T5, 5-HT3AB receptors; settings: competition with 0.7 nM [^3H]BRL43694
5-HT3AB receptors [8] = target: T5, 5-HT3AB receptors; assay: Competition binding with [^3H]VUF10166 at 5-HT3AB receptors
5-HT3A receptors [9] = target: T1, 5-HT3A receptors; settings: competition with 0.7 nM [^3H]BRL43694
5-HT3A receptors [10] = target: T1, 5-HT3A receptors; assay: Competition binding with [^3H]VUF10166 at 5-HT3A receptors

α7 nACh receptors, sequence (P36544 23-502): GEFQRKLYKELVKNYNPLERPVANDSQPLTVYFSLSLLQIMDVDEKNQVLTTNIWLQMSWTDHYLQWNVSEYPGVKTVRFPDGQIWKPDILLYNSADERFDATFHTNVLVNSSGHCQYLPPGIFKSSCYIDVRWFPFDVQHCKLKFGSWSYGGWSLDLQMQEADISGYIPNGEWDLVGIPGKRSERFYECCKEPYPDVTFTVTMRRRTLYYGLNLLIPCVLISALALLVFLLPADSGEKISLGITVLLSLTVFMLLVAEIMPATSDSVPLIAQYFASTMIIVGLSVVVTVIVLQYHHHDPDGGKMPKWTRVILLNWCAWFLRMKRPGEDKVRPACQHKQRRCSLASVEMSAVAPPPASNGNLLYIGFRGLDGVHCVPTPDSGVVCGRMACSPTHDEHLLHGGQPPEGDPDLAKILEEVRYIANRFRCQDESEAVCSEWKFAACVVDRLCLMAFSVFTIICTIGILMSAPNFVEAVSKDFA
T2 sequence (P46098 24-478 Y148C): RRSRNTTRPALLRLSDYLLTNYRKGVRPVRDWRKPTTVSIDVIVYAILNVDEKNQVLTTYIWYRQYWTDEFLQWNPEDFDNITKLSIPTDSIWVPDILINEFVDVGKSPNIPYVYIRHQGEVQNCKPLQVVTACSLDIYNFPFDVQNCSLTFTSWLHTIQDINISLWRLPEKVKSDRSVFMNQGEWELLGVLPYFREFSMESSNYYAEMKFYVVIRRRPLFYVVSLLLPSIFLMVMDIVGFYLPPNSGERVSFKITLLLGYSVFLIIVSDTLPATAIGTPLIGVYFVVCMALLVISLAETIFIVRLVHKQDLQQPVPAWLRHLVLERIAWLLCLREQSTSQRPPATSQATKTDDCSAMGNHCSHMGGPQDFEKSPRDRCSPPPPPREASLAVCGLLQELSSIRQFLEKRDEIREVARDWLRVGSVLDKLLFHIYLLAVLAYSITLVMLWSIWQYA
T3 sequence (P46098 24-478 F221C): as the sequence (P46098 24-478 Y148C) above, with C125Y, F198C counted along it
T4 sequence (P46098 24-478 L121C): as the sequence (P46098 24-478 Y148C) above, with L98C, C125Y counted along it

In the case of CN1CCN(c2nc3ccccc3nc2Cl)CC1 [VUF10166, 2-chloro-3-(4-methylpiperazin-1-yl)quinoxaline], the pKi (5-HT3A receptors [1]; 5-HT3A receptors) is given as about 10, the “affinity at 5-HT3A relative to 5-HT3AB receptors” value (5-HT3A receptors [1]) is given as about 100 fold and the Kd (5-HT3A receptors [2]) is given as 0.18 ± 0.04 nM. It also gave a Fold change (5-HT3A receptor Y153C) of 10, a Fold change (5-HT3A receptor F226C) of 7 and a Fold change (5-HT3A receptor L126C) of about 4. It also gave a Kd (5-HT3A receptors [3]; calculated from kinetic rates, Equ (4), read-out: Kd(nM) (kon/koff)) of 0.16 nM, a koff (5-HT3A receptors [3]; intercept of plot of kobs versus radioligand concentration, read-out: koff (converted)) of 0.000167 s⁻¹ and a kon (5-HT3A receptors [3]; slope of plot of kobs versus radioligand concentration, read-out: kon (converted)) of 1.04e+06 M⁻¹ s⁻¹. The “competition with [^3H]epibatidine (in words)” value (α7 nACh receptors) was “does not compete”, the “agonist activity (in words)” value (5-HT3 receptors) was “low efficacy partial agonist” and the Ki (5-HT3AB receptors [4]) was 37 nM and 36.7 nM. For the same molecule, the kon (5-HT3AB receptors [5]; first component of two site fit, [^3H]VUF10166 < 3 nM) was 1.02e+06 M⁻¹ s⁻¹, the koff (5-HT3AB receptors [5]; first component, [^3H]VUF10166 < 3 nM, read-out: koff (converted)) was 0.0004 s⁻¹ and the Kd (5-HT3AB receptors [5]; first component) was 0.38 nM. The Kd (5-HT3AB receptors [5]; second component (>3 nM)) was 22.4 nM, the kon (5-HT3AB receptors [5]; second component of two site fit, [^3H]VUF10166 > 3 nM) was 120000 M⁻¹ s⁻¹ and the koff (5-HT3AB receptors [5]; second component, [^3H]VUF10166 > 3 nM) was 0.0027 s⁻¹. For the same molecule, the koff (5-HT3AB receptors [5]; second component, [^3H]VUF10166 > 3 nM, read-out: koff (converted)) was 0.00267 s⁻¹ and the Ki (5-HT3A receptors [6]) was 0.24 ± 0.11 nM.
For NC(N)=NC(N)=Nc1cccc(Cl)c1 [mCPBG, meta-chlorophenylbiguanide], the “pIC50 5-HT3AB” value (5-HT3AB receptors [7]) was 6.64 ± 0.12 (5), the “inhibition of specific [^3H]VUF10166 binding (in words)” value (5-HT3AB receptors [8]; 5-HT3AB) was “inhibited” and the “pIC50 5-HT3AB” value (5-HT3AB receptors [8]; competition with 0.6 nM [^3H]VUF10166) was 6.07 ± 0.20 (5). The “pIC50 5-HT3A” value (5-HT3A receptors [9]) was 6.88 ± 0.13 (7), the “inhibition of specific [^3H]VUF10166 binding (in words)” value (5-HT3A receptors [10]; 5-HT3A) was “inhibited” and the “pIC50 5-HT3A” value (5-HT3A receptors [10]; competition with 0.2 nM [^3H]VUF10166) was 7.49 ± 0.06 (4).
